Assay results: the supplement of paper PMC10307832

Compound: C=C(c1ccc(C(=O)O)cc1)c1cc2c(cc1C)C(C)(C)CCC2(C)C [Bexarotene] + CC(=O)Nc1cccc(-n2c(=O)n(C3CC3)c(=O)c3c(Nc4ccc(I)cc4F)n(C)c(=O)c(C)c32)c1 [Trametinib] (partner 0.02 µM)
Experiment: relative viability (nuclei count vs DMSO), 5 days (fraction); higher = more cells survive
Procedure, shortened: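 Lung cancer cell lines were seeded in 1536-well plates and dosed by pin tool the next day, with either a single drug or a fixed anchor-drug dose combined with five library-drug doses (not always all listed) spaced in √10 steps. Five days later, one step fixed the cells and stained their nuclei (final 0.05% Triton X-100, 1% formaldehyde, 1 ug/ml Hoechst), and nuclei were counted on 4× images. Relative viability is the nuclei count in treated wells divided by the count in vehicle wells, and each value is the median of duplicate plates.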

| Cell Line | relative viability (first compound 0.08 µM) | relative viability (first compound 0.253 µM) | relative viability (first compound 0.8 µM) | relative viability (first compound 2.53 µM) | relative viability (first compound 8 µM) |
| --- | --- | --- | --- | --- | --- |
| 201T | 0.751 | 0.724 | 0.713 | 0.704 | 0.643 |
| A-427 | 0.726 | 0.643 | 0.629 | 0.517 | 0.599 |
| BEN | 0.994 | 1.02 | 0.943 | 0.804 | 0.997 |
| CAL-12T | 0.349 | 0.286 | 0.319 | 0.233 | 0.319 |
| COR-L23 | 0.747 | 0.72 | 0.501 | 0.553 | 0.547 |
| COR-L 105 | 0.48 | 0.426 | 0.478 | 0.451 | 0.465 |
| ChaGo-K-1 | 1.02 | 1.02 | 0.978 | 1.05 | 0.932 |
| EKVX | 0.291 | 0.359 | 0.355 | 0.372 | 0.295 |
| EMC-BAC-2 | 1.08 | 0.901 | 0.996 |  | 0.88 |
| EPLC-272H | 0.318 | 0.277 | 0.285 | 0.322 | 0.314 |
| H3255 | 0.715 | 0.759 | 0.615 | 0.626 | 0.674 |
| HARA | 0.902 | 0.895 | 0.642 | 0.989 | 0.602 |
| HCC-15 | 0.372 | 0.431 | 0.371 | 0.371 | 0.365 |
| HCC-44 | 1.02 | 1.03 | 0.884 | 0.899 | 1.08 |
| HCC-78 | 0.833 | 0.952 | 0.545 | 0.708 | 0.861 |
| HCC-366 | 0.357 | 0.375 | 0.361 | 0.295 | 0.263 |
| HCC-827 | 0.525 | 0.576 | 0.493 | 0.496 | 0.51 |
| HOP-62 | 0.412 | 0.502 | 0.385 | 0.412 | 0.422 |
| LC-2-ad | 1.06 | 0.941 | 0.96 | 0.968 | 0.948 |
| LCLC-97TM1 | 0.187 | 0.216 | 0.157 | 0.165 | 0.191 |
| LCLC-103H | 0.761 | 0.697 | 0.678 | 0.663 | 0.764 |
| LK-2 | 0.838 | 0.895 | 0.779 | 0.719 | 0.915 |
| LOU-NH91 | 0.81 | 0.856 | 0.807 | 0.795 | 0.759 |
| LU99A | 0.659 | 0.531 | 0.608 | 0.52 | 0.417 |

| Cell Line | relative viability (first compound 0.08 µM) | relative viability (first compound 0.253 µM) | relative viability (first compound 0.8 µM) | relative viability (first compound 2.53 µM) | relative viability (first compound 8 µM) |
| --- | --- | --- | --- | --- | --- |
| LXF-289 | 0.797 | 0.832 | 0.792 | 0.755 | 0.747 |
| NCI-H23 | 0.447 | 0.435 | 0.395 | 0.364 | 0.347 |
| NCI-H322M | 0.578 | 0.443 | 0.534 | 0.501 | 0.508 |
| NCI-H358 | 0.134 | 0.12 | 0.111 | 0.119 | 0.123 |
| NCI-H441 | 0.568 | 0.481 | 0.669 | 0.527 | 0.633 |
| NCI-H460 | 0.153 | 0.155 | 0.13 | 0.199 | 0.177 |
| NCI-H520 | 0.668 | 0.63 | 0.742 | 0.662 | 0.643 |
| NCI-H596 | 0.862 | 0.876 | 0.654 | 0.762 | 0.802 |
| NCI-H647 | 0.663 | 0.46 | 0.335 | 0.433 | 0.44 |
| NCI-H650 | 1.17 | 0.957 | 1.02 | 0.972 | 0.957 |
| NCI-H661 | 0.58 | 0.523 | 0.544 | 0.543 | 0.495 |
| NCI-H727 | 0.377 | 0.362 | 0.293 | 0.382 | 0.292 |
| NCI-H838 | 0.551 | 0.611 | 0.545 | 0.657 | 0.585 |
| NCI-H1355 | 0.468 | 0.445 | 0.373 | 0.479 | 0.457 |
| NCI-H1395 | 1.18 | 1.03 | 1.15 | 0.908 | 1.1 |
| NCI-H1437 | 0.552 | 0.508 | 0.488 | 0.482 | 0.459 |
| NCI-H1648 | 0.448 | 0.483 | 0.559 | 0.469 | 0.529 |
| NCI-H1650 | 0.56 | 0.474 | 0.614 | 0.466 | 0.477 |
| NCI-H1651 | 0.861 | 0.867 | 0.884 | 0.875 | 0.827 |
| NCI-H1666 | 0.912 | 0.788 | 0.839 | 0.809 | 0.743 |
| NCI-H1734 | 0.69 | 0.732 | 0.642 | 0.589 | 0.57 |
| NCI-H1755 | 0.849 | 0.864 | 0.834 | 0.773 | 0.718 |
| NCI-H1792 | 0.677 | 0.46 | 0.442 | 0.493 | 0.345 |
| NCI-H1793 | 0.395 | 0.4 | 0.415 | 0.397 | 0.408 |

| Cell Line | relative viability (first compound 0.08 µM) | relative viability (first compound 0.253 µM) | relative viability (first compound 0.8 µM) | relative viability (first compound 2.53 µM) | relative viability (first compound 8 µM) |
| --- | --- | --- | --- | --- | --- |
| NCI-H1915 | 0.297 | 0.286 | 0.266 | 0.255 | 0.218 |
| NCI-H1944 | 0.526 | 0.517 | 0.465 | 0.47 | 0.425 |
| NCI-H1975 | 0.387 | 0.38 | 0.307 | 0.331 | 0.333 |
| NCI-H1993 | 0.547 | 0.541 | 0.507 | 0.395 | 0.544 |
| NCI-H2009 | 0.336 | 0.331 | 0.28 | 0.391 | 0.413 |
| NCI-H2023 | 0.719 | 0.676 | 0.551 | 0.497 | 0.355 |
| NCI-H2085 | 0.486 | 0.59 | 0.4 | 0.449 | 0.535 |
| NCI-H2087 | 0.21 | 0.166 | 0.175 | 0.148 | 0.171 |
| NCI-H2126 | 0.639 | 0.56 | 0.553 | 0.619 | 0.54 |
| NCI-H2170 | 0.901 | 0.916 | 0.886 | 0.785 | 0.768 |
| NCI-H2228 | 0.54 | 0.641 | 0.389 | 0.457 | 0.417 |
| NCI-H2347 | 0.31 | 0.235 | 0.25 | 0.279 | 0.299 |
| NCI-H2405 | 0.823 | 0.819 | 0.66 | 0.749 | 0.693 |
| NCI-H3122 | 0.25 | 0.229 | 0.191 | 0.238 | 0.224 |
| PC-3 [JPC-3] | 0.708 | 0.719 | 0.595 | 0.654 | 0.678 |
| PC-14 | 0.708 | 0.901 | 0.961 | 0.818 | 0.821 |
| RERF-LC-KJ | 0.879 | 0.85 | 0.814 | 0.873 | 0.799 |
| SK-LU-1 | 0.548 | 0.587 |  | 0.579 | 0.517 |
| SK-MES-1 | 0.701 | 0.747 | 0.656 | 0.672 | 0.65 |
| SW 900 | 0.635 | 0.846 | 0.85 | 0.81 | 0.647 |
| SW 1573 | 0.546 | 0.507 | 0.538 | 0.502 | 0.456 |
| UMC-11 | 0.638 | 0.668 | 0.623 | 0.634 | 0.658 |
